Laboratory results reported in ChEMBL document CHEMBL1129342, “Structure-based design of novel HIV protease inhibitors: sulfonamide-containing 4-hydroxycoumarins and 4-hydroxy-2-pyrones as potent non-peptidic inhibitors” (J Med Chem, 1996).

What was measured:
[1] = molecular target: T1, Human immunodeficiency virus type 1 protease (Human immunodeficiency virus 1, UniProt Q72874); experiment: Binding affinity against HIV-1 protease.
[2] = molecular target: Human immunodeficiency virus type 1 protease (Human immunodeficiency virus 1) (UniProt Q72874)
Description: Inhibitory concentration for antiviral activity against MT-4/HIV-1IIIB cell culture

[3] = molecular target: T1, Human immunodeficiency virus type 1 protease; experiment: Binding affinity towards HIV protease

Row | SMILES | Ki [1] [nM] | IC90 [2] [nM] | Ki [3] [nM]
1 | CCC(CC1CCOCC1)c1cc(O)c(C(c2cccc(NS(=O)(=O)c3cn(C)cn3)c2)C2CC2)c(=O)o1 (stereo not given) | 0.48 | – | –
2 | CCC(Cc1ccccc1)c1cc(O)c(C(c2cccc(NS(=O)(=O)c3cn(C)cn3)c2)C2CC2)c(=O)o1 (mixture of isomers) [listing 1 of 2 here] | – | 4100 | –
3 | CCC(Cc1ccccc1)c1cc(O)c(C(c2cccc(NS(=O)(=O)c3cn(C)cn3)c2)C2CC2)c(=O)o1 (single isomer, unassigned; diastereomer 2) [listing 1 of 2 here] | 0.73 | – | –
4 | COc1c(C(O)c2ccccc2)c(=O)oc2ccccc12 (stereo not given) | – | – | 1
5 | CCC(Cc1ccccc1)c1cc(O)c(C(c2cccc(NS(=O)(=O)c3cn(C)cn3)c2)C2CC2)c(=O)o1 (single isomer, unassigned; diastereomer 3) [listing 1 of 2 here] | 1.9 | – | –
6 | CCC(Cc1ccccc1)c1cc(O)c(C(c2cccc(NS(=O)(=O)c3cn(C)cn3)c2)C2CC2)c(=O)o1 (single isomer, unassigned; diastereomer 1) [listing 1 of 2 here] | 0.52 | – | –
7 | COCCOCCC(CCOCCOC)c1cc(O)c(C(c2cccc(NS(=O)(=O)c3cn(C)cn3)c2)C2CC2)c(=O)o1 (stereo not given) | 4.2 | – | –
8 | O=c1cc(C(CC2CC2)CC2CC2)oc(O)c1C(c1cccc(NS(=O)(=O)c2cccc3cccnc23)c1)C1CC1 (stereo not given) | 5.3 | 6500 | –
9 | CCC(Cc1ccccc1)c1cc(O)c(C(c2cccc(NS(=O)(=O)c3ccc(OC)cc3)c2)C2CC2)c(=O)o1 (stereo not given) | 22 | 7600 | –
10 | CCC(Cc1ccccc1)c1cc(O)c(C(c2cccc(NS(=O)(=O)c3cn(C)cn3)c2)C2CC2)c(=O)o1 (single isomer, unassigned; diastereomer 4) [listing 1 of 2 here] | 1.4 | – | –
11 | CCC(Cc1ccccc1)c1cc(O)c(C(c2cccc(NS(=O)(=O)c3ccc(C#N)cc3)c2)C2CC2)c(=O)o1 (stereo not given) | 5.7 | 9900 | –
12 | CCC(c1cccc(NC(=O)CCNC2C=Cc3ccccc32)c1)c1c(O)oc2ccccc2c1=O (stereo not given) | – | – | 110
13 | COc1ccc2c(O)c(C(c3cccc(NS(=O)(=O)c4cccc5cccnc45)c3)C3CC3)c(=O)oc2c1 (stereo not given) | 4.9 | – | –
14 | COc1ccc2c(O)c(C(c3cccc(NS(=O)(=O)c4cn(C)cn4)c3)C3CC3)c(=O)oc2c1 (stereo not given) | 0.7 | – | –
15 | Cn1cnc(S(=O)(=O)Nc2cccc(C(c3c(O)cc(C(CC4CC4)CC4CC4)oc3=O)C3CC3)c2)c1 (single isomer, unassigned; enantiomer 1) | – | 10400 | –
16 | COc1ccc2c(O)c(C(c3cccc(NS(=O)(=O)c4ccc(C#N)cc4)c3)C3CC3)c(=O)oc2c1 (stereo not given) | 5.8 | – | –
17 | COCCOCCCc1cc(O)c(C(c2cccc(NS(=O)(=O)c3cn(C)cn3)c2)C2CC2)c(=O)o1 (stereo not given) | 1.6 | – | –
18 | Cn1cnc(S(=O)(=O)Nc2cccc(C(c3c(O)cc(C(CC4CC4)CC4CC4)oc3=O)C3CC3)c2)c1 (racemic) | – | 4600 | –
19 | Cn1cnc(S(=O)(=O)Nc2cccc(C(c3c(O)cc(CCc4ccccc4)oc3=O)C3CC3)c2)c1 (stereo not given) | 0.97 | – | –
20 | Cc1cc(O)c(C(c2cccc(NS(=O)(=O)c3cn(C)cn3)c2)C2CC2)c(=O)o1 (stereo not given) | 14 | – | –

Row | SMILES | Ki [1] [nM] | IC90 [2] [nM] | Ki [3] [nM]
21 | CCC(Cc1ccccc1)c1cc(O)c(C(c2cccc(NS(=O)(=O)c3cn(C)cn3)c2)C2CC2)c(=O)o1 (single isomer, unassigned; diastereomer 4) [listing 2 of 2 here] | – | 6000 | –
22 | Cn1cnc(S(=O)(=O)Nc2cccc(C(c3c(O)cc(C(CC4CC4)CC4CC4)oc3=O)C3CC3)c2)c1 (single isomer, unassigned; enantiomer 2) | – | 6900 | –
23 | COc1ccc2c(O)c(C(c3cccc(NS(=O)(=O)c4ccc(F)cc4)c3)C3CC3)c(=O)oc2c1 (stereo not given) | 7.7 | – | –
24 | CCC(Cc1ccccc1)c1cc(O)c(C(c2cccc(NC(=O)C(Cc3c[nH]cn3)NC(=O)OC(C)(C)C)c2)C2CC2)c(=O)o1 (stereo not given) | – | – | 4
25 | CCC(Cc1ccccc1)c1cc(O)c(C(c2cccc(NS(=O)(=O)c3cccnc3)c2)C2CC2)c(=O)o1 (stereo not given) | 12 | 28700 | –
26 | CCC(CC)c1cc(O)c(C(c2cccc(NS(=O)(=O)c3cn(C)cn3)c2)C2CC2)c(=O)o1 (stereo not given) | 0.54 | – | –
27 | O=c1cc(C(CC2CC2)CC2CC2)oc(O)c1C(c1cccc(NS(=O)(=O)c2ccccc2)c1)C1CC1 (stereo not given) | 23 | 12100 | –
28 | CCC(Cc1ccccc1)c1cc(O)c(C(c2cccc(NS(=O)(=O)c3cccc4cccnc34)c2)C2CC2)c(=O)o1 (stereo not given) | 3.5 | 6000 | –
29 | CCC(Cc1ccccc1)c1cc(O)c(C(c2cccc(NS(=O)(=O)c3cn(C)cn3)c2)C2CC2)c(=O)o1 (single isomer, unassigned; diastereomer 3) [listing 2 of 2 here] | – | 6800 | –
30 | CCC(Cc1ccccc1)c1cc(O)c(C(c2cccc(NS(=O)(=O)c3ccc(Cl)cc3)c2)C2CC2)c(=O)o1 (stereo not given) | 15 | 6200 | –
31 | CCC(Cc1ccccc1)c1cc(O)c(C(c2cccc(NS(=O)(=O)c3cn(C)cn3)c2)C2CC2)c(=O)o1 (mixture of isomers) [listing 2 of 2 here] | 1.3 | – | –
32 | CCC(Cc1ccccc1)c1cc(O)c(C(c2cccc(NC(=O)Cc3cccnc3)c2)C2CC2)c(=O)o1 (stereo not given) | – | – | 44
33 | CCCS(=O)(=O)Nc1cccc(C(c2c(O)cc(C(CC)Cc3ccccc3)oc2=O)C2CC2)c1 (stereo not given) | 40 | 11100 | –
34 | CCC(Cc1ccccc1)c1cc(O)c(C(c2cccc(NS(=O)(=O)c3ccccc3)c2)C2CC2)c(=O)o1 (stereo not given) | 17 | 7600 | –
35 | CCC(Cc1ccccc1)c1cc(O)c(C(c2cccc(NS(=O)(=O)c3cn(C)cn3)c2)C2CC2)c(=O)o1 (single isomer, unassigned; diastereomer 2) [listing 2 of 2 here] | – | 5700 | –
36 | N#Cc1ccc(S(=O)(=O)Nc2cccc(C(c3c(O)oc(C(CC4CC4)CC4CC4)cc3=O)C3CC3)c2)cc1 (stereo not given) | 5.4 | 8900 | –
37 | O=c1cc(C(CC2CC2)CC2CC2)oc(O)c1C(c1cccc(NS(=O)(=O)c2ccc(F)cc2)c1)C1CC1 (stereo not given) | 16 | 8000 | –
38 | CCC(Cc1ccccc1)c1cc(O)c(C(c2cccc(NS(=O)(=O)c3cn(C)cn3)c2)C2CC2)c(=O)o1 (single isomer, unassigned; diastereomer 1) [listing 2 of 2 here] | – | 4500 | –
39 | CCC(CCOCCOC)c1cc(O)c(C(c2cccc(NS(=O)(=O)c3cn(C)cn3)c2)C2CC2)c(=O)o1 (stereo not given) | 0.88 | – | –
